How the values were obtained:
A549 = assay: Anti-proliferative activity, CellTiter-96 assay, A549; assay type: cell-based; settings: Homo sapiens, A549 cells, 72 hours incubation
Experimental: (§1) Antiproliferative Activity
(§2) The anti-proliferative activities of the compounds with formula (I) and formula (II) with respect to four human cancer cell lines (A549, A375, MDA-MB-231, and COLO205) were measured using the CellTiter™-96 assay kit (Promega) following the manufacturer's instructions. In brief, the cells were maintained in DMEM containing 10% FCS and incubated at 37° C. in 5% CO2 atmosphere. Cells were plated at a density of 2000 cells/well of a 96-well plate for 24 h, then treated with different concentrations of the compounds, and incubated for another 72 hours. At the end of the incubation, CellTiter™-96 Aqueous One Solution Reagent (Promega) was added and incubated for another 4.0 hours. Cell viability was determined by measuring absorbance at 490 nm using EMax® microplate reader (Molecular Devices). Data were processed and analyzed using GraphPad Prism version 4.

B-Raf (V600E) = B-Raf (V600E) (Homo sapiens (Human), UniProt P15056, V600E); assay: Raf kinase assay (B-Raf (V600E)), [33P] incorporation into MEK1(K97R); assay type: biochemical
Chain of B-Raf (V600E) (P15056 whole entry V600E): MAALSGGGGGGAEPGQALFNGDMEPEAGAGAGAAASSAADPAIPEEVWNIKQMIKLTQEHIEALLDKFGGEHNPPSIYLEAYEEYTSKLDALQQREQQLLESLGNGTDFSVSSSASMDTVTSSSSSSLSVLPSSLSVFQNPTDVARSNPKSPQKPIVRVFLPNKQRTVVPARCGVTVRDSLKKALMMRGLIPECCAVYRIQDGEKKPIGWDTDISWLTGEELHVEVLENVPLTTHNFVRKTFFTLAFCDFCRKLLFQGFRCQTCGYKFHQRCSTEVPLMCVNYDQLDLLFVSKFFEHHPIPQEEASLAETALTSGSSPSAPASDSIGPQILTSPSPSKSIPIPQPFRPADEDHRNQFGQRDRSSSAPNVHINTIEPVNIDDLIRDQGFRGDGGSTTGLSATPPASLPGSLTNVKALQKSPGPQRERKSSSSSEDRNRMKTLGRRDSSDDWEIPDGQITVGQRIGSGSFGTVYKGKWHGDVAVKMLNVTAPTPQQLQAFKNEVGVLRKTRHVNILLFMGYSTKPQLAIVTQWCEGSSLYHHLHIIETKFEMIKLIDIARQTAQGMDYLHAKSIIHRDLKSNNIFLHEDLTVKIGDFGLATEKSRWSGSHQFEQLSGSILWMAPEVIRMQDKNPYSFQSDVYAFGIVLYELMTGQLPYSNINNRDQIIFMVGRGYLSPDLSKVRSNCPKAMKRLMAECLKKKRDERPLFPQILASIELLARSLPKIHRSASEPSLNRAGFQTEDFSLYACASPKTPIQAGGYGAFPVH
Outline: (§3)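 [33P] transfer to kinase-dead MEK1(K97R) substrate (500 ng) measured after 30 min at 30 °C in Tris pH 7.5 buffer containing 8 μM ATP. Enzyme inputs were 2 ng for C-Raf and 5 ng for B-Raf and B-Raf V600E. Duplicate 3-fold serial dilutions gave the half-maximal inhibitory concentration.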

MDA-MB-231 = assay: Anti-proliferative activity, CellTiter-96 assay, MDA-MB-231; assay type: cell-based; settings: Homo sapiens, MDA-MB-231 cells, 72 hours incubation
Experimental: as §1, §2

A375 = assay: Anti-proliferative activity, CellTiter-96 assay, A375; assay type: cell-based; settings: Homo sapiens, A-375, A375 cells, 72 hours incubation
Experimental: as §1, §2

B-Raf = B-Raf (Homo sapiens (Human), UniProt P15056); assay: Raf kinase assay (B-Raf), [33P] incorporation into MEK1(K97R); assay type: biochemical; settings: for inhibition at 1 µM: 1.0 μM compound, read-out: B-Raf inhibition at 1.0 μM
Chain of B-Raf (P15056 whole entry): as the sequence (P15056 whole entry V600E) above, with E600V counted along it
Outline: as §3

COLO205 = assay: Anti-proliferative activity, CellTiter-96 assay, COLO205; assay type: cell-based; settings: Homo sapiens, COLO 205, COLO205 cells, 72 hours incubation
Experimental: as §1, §2

C-Raf = C-Raf (Homo sapiens (Human), UniProt P04049); assay: Raf kinase assay (C-Raf), [33P] incorporation into MEK1(K97R); assay type: biochemical
Chain of C-Raf (P04049 whole entry): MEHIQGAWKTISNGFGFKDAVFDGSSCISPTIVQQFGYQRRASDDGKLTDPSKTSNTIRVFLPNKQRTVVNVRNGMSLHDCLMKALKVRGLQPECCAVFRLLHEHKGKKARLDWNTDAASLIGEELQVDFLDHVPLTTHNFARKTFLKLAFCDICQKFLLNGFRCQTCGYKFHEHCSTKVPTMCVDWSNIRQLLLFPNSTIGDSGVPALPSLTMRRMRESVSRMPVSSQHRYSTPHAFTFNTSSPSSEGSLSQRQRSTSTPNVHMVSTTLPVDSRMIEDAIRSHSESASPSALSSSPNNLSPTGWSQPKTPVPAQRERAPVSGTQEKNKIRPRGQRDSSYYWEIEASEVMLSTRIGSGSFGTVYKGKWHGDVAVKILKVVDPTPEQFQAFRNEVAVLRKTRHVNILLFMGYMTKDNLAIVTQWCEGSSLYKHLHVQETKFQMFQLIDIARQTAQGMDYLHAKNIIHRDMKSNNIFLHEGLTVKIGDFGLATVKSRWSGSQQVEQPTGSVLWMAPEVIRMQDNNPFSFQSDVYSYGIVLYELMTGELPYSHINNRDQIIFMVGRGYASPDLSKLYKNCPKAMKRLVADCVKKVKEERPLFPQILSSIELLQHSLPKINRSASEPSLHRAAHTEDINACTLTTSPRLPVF
Outline: as §3

| SMILES | IC50 (A549) [nM] | IC50 (B-Raf (V600E)) [nM] | IC50 (MDA-MB-231) [nM] | IC50 (A375) [nM] | IC50 (B-Raf) [nM] | inhibition at 1 µM (B-Raf) [%] | IC50 (COLO205) [nM] | IC50 (C-Raf) [nM] |
| --- | --- | --- | --- | --- | --- | --- | --- | --- |
| COc1cc(-c2ccc3ncnc(Nc4cccc(O)c4Cl)c3c2)ccc1O [Compound 60, 2-chloro-3-(6-(4-hydroxy-3-methoxyphenyl)quinazolin-4-ylamino)phenol] | 1300 ± 200 | 56.5 | 1700 ± 500 | 1300 ± 300 | 39 | 91 | 6800 ± 160 | 152 |
| COc1cc2ncnc(Nc3cccc(O)c3)c2cc1-c1ccc(O)cc1 [Compound 49, 3-(6-(4-hydroxyphenyl)-7-methoxyquinazolin-4-ylamino)phenol] | > 50000 | 71.6 | > 50000 | > 50000 | 55.3 | 90.3 | > 50000 | 790 |
| COc1cc(-c2ccc3ncnc(Nc4ccc5nc[nH]c5c4)c3c2)ccc1O [Compound 54, 4-(4-(1H-benzo[d]imidazol-6-ylamino)quinazolin-6-yl)-2-methoxyphenol] |  | 633 |  |  | 735 | 56.2 |  | 2570 |
| CCOc1ccc(-c2ccc3ncnc(Nc4cccc5[nH]ncc45)c3c2)cc1 [Compound 93, 6-(4-ethoxyphenyl)-N-(1H-indazol-4-yl)quinazolin-4-amine] |  | 355 |  |  | 347 | 76.6 |  | 1560 |
| COc1cc(-c2ccc3ncnc(Nc4ccc(Cl)cc4F)c3c2)ccc1O [Compound 16, 4-(4-(4-chloro-2-fluorophenylamino)quinazolin-6-yl)-2-methoxyphenol] |  | 810 |  |  | 817 | 51.5 |  | 1250 |
| Fc1ccc(-c2ccc3ncnc(Nc4cccc5[nH]ncc45)c3c2)cc1Cl [Compound 79, 6-(3-chloro-4-fluorophenyl)-N-(1H-indazol-4-yl)quinazolin-4-amine] |  | 557 |  |  | 514 | 69.6 |  | 1220 |
| COc1cc(-c2ccc3ncnc(Nc4cccc(NC(C)=O)c4)c3c2)ccc1O [Compound 44, N-(3-(6-(4-hydroxy-3-methoxyphenyl)quinazolin-4-ylamino)phenyl)acetamide] |  | 382 |  |  | 489 | 65.3 |  | 685 |
| OCc1cccc(-c2ccc3ncnc(Nc4cccc5[nH]ncc45)c3c2)c1 [Compound 94, (3-(4-(1H-indazol-4-ylamino)quinazolin-6-yl)phenyl)methanol] |  | 551 |  |  | 430 | 76.2 |  | 1410 |
| COc1cc(-c2cc3c(Nc4ccc(C)c(O)c4)ncnc3cc2OC)ccc1O [Compound 41, 4-(4-(3-hydroxy-4-methylphenylamino)-7-methoxyquinazolin-6-yl)-2-methoxyphenol] |  | 349 |  |  | 266 | 82.2 |  | > 10000 |
| COc1cc(-c2ccc3ncnc(Nc4cccc(S(N)(=O)=O)c4)c3c2)ccc1O [Compound 27, 3-(6-(4-hydroxy-3-methoxyphenyl)quinazolin-4-ylamino)benzenesulfonamide] |  | 453 |  |  | 415 | 77.2 |  | 887 |
| COc1cc(-c2ccc3ncnc(Nc4cccc(C(F)(F)F)c4)c3c2)ccc1O [Compound 18, 2-methoxy-4-(4-(3-(trifluoromethyl)phenylamino)quinazolin-6-yl)phenol] |  | 1170 |  |  | 3140 | 48.9 |  | > 10000 |
| COc1cc(-c2ccc3ncnc(Nc4ccc(S(N)(=O)=O)cc4)c3c2)ccc1O [Compound 46, 4-(6-(4-hydroxy-3-methoxyphenyl)quinazolin-4-ylamino)benzenesulfonamide] |  | 576 |  |  | 624 | 64.4 |  | 1960 |
| COc1ccc(-c2ccc3ncnc(Nc4cccc5[nH]ncc45)c3c2)c(C)c1 [Compound 77, N-(1H-indazol-4-yl)-6-(4-methoxy-2-methylphenyl)quinazolin-4-amine] |  | 911 |  |  | 698 | 61.7 |  | 2530 |
| COc1cc(-c2ccc3ncnc(Nc4ccc(C(=O)O)cc4O)c3c2)ccc1O [Compound 34, 3-hydroxy-4-(6-(4-hydroxy-3-methoxyphenyl)quinazolin-4-ylamino)benzoic acid] |  | 572 |  |  | 494 | 65 |  | 580 |
| Fc1ccccc1-c1ccc2ncnc(Nc3cccc4[nH]ncc34)c2c1 [Compound 91, 6-(2-fluorophenyl)-N-(1H-indazol-4-yl)quinazolin-4-amine] |  | 255 |  |  | 155 | 85.3 |  | 709 |

Results, then the molecule that gave them:

| IC50 (A549) [nM] | IC50 (B-Raf (V600E)) [nM] | IC50 (MDA-MB-231) [nM] | IC50 (A375) [nM] | IC50 (B-Raf) [nM] | inhibition at 1 µM (B-Raf) [%] | IC50 (COLO205) [nM] | IC50 (C-Raf) [nM] | SMILES |
| --- | --- | --- | --- | --- | --- | --- | --- | --- |
| > 50000 | 151 | 12700 ± 2000 | 24500 ± 7100 | 112 | 86.6 | 12700 ± 2100 | 584 | NC(=O)c1cccc(-c2ccc3ncnc(Nc4cccc5[nH]ncc45)c3c2)c1 [Compound 97, 3-(4-(1H-indazol-4-ylamino)quinazolin-6-yl)benzamide] |
| 1500 ± 300 | 23.4 | 2100 ± 500 | 1000 ± 100 | 16.9 | 94.7 | 5200 ± 1800 | 133 | COc1cc(-c2ccc3ncnc(Nc4ccc(F)c(O)c4)c3c2)ccc1O [Compound 161, 4-(4-(4-fluoro-3-hydroxyphenylamino)quinazolin-6-yl)-2-methoxyphenol] |
| > 30000 | 19 | > 30000 | 8200 ± 1300 | 8.9 | 97.9 | 20900 ± 12600 | 147 | Oc1cc(Nc2ncnc3ccc(-c4ccc(Cl)cc4)cc23)c(F)cc1F [Compound 160, 5-(6-(4-chlorophenyl)quinazolin-4-ylamino)-2,4-difluorophenol] |
| 26000 ± 3200 | 4.5 | 17800 ± 200 | 4100 ± 700 | 2.4 | 94.2 | 15700 ± 2000 | 256 | Oc1c(F)ccc(Nc2ncnc3ccc(-c4ccc5[nH]ncc5c4)cc23)c1F [Compound 163, 3-(6-(1H-indazol-5-yl)quinazolin-4-ylamino)-2,6-difluorophenol] |
| > 50000 | 198 | > 50000 | > 50000 | 131 | 86.4 |  | 2330 | COc1ccc(-c2ccc3ncnc(Oc4cccc(O)c4)c3c2)cc1 [Compound 152, 3-(6-(4-methoxyphenyl)quinazolin-4-yloxy)phenol] |
|  | 423 |  |  | 285 | 71.2 |  | 1030 | Fc1ccccc1-c1ccc2nccc(Nc3cccc4[nH]ncc34)c2c1 [Compound 125, 6-(2-fluorophenyl)-N-(1H-indazol-4-yl)quinolin-4-amine] |
|  | 525 |  |  | 548 | 68.2 |  | 988 | COc1cc(-c2ccc3ncnc(Nc4cccc(OC(F)F)c4)c3c2)ccc1O [Compound 118, 4-(4-(3-(difluoromethoxy)phenylamino)quinazolin-6-yl)-2-methoxyphenol] |
|  | 291 |  |  | 263 | 75.5 |  | 972 | COc1ccc(-c2ccc3nccc(Nc4cccc5[nH]ncc45)c3c2)cc1OC [Compound 113, 6-(3,4-dimethoxyphenyl)-N-(1H-indazol-4-yl)quinolin-4-amine] |
|  | 706 |  |  | 760 | 57.7 |  | 4420 | COc1cc(-c2ccc3ncnc(Nc4c(F)cccc4F)c3c2)ccc1O [Compound 134, 4-(4-(2,6-difluorophenylamino)quinazolin-6-yl)-2-methoxyphenol] |
|  | 848 |  |  | 680 | 50.7 |  | 2950 | COc1ccc(-c2ccc3ncnc(Nc4cccc5[nH]ncc45)c3c2)cc1 [Compound 147, N-(1H-indazol-4-yl)-6-(4-methoxyphenyl)quinazolin-4-amine] |
| 7700 ± 600 | 236 | 7800 ± 300 | 6400 ± 900 | 188 | 84.4 |  | 723 | c1cc(Nc2ncnc3ccc(-c4ccc5[nH]ncc5c4)cc23)c2cn[nH]c2c1 [Compound 153, N-(1H-indazol-4-yl)-6-(1H-indazol-5-yl)quinazolin-4-amine] |
|  | 216 |  |  | 151 | 83 |  | 3510 | Oc1c(F)ccc(Nc2ncnc3ccc(-c4ccc(Cl)cc4)cc23)c1F [Compound 164, 3-(6-(4-chlorophenyl)quinazolin-4-ylamino)-2,6-difluorophenol] |

From patent US8785459B2, “Quinazoline compounds as kinase inhibitors” (Development Center for Biotechnology, priority 2011, dated 2014)
